Data from patent US20260258050A1, “IMMUNOMODULATOR” (HITGEN INC., priority 2023, published 2026).

target: T1, Human IL-17A (Homo sapiens, UniProt Q16552); experiment: IL-17A enzyme-linked immunosorbent assay (competitive ELISA, IL-17A/IL-17Ra receptor-ligand binding); design: purchased Sino Biological Inc. 12047-H07B; conditions: human IL-17A coated plate, human IL-17Ra, read-out: IC50, inhibitory activity of compounds on human IL-17A
T1 sequence (Q16552 20-155 limits assumed): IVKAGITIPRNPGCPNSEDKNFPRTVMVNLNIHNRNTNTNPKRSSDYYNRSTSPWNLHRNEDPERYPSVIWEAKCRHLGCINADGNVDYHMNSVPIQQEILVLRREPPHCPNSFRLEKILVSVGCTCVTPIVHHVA
Procedure: Experimental Example 1 IL-17A Enzyme-Linked Immunosorbent Assay (ELISA)
The inhibitory effects of human IL-17A inhibitors on receptor-ligand binding were quantitatively determined by a competitive enzyme-linked immunosorbent assay (ELISA). The ELISA was performed through the following steps.
Human IL-17A (Sino Biological Inc., Cat #12047-H07B) was diluted with coating buffer (50 mM phosphate-buffered saline (PBS), pH 7.4) to give an IL-17A concentration of 0.2 μg/ml. 100 μL of the resulting solution was added to each well of a 96-well plate, and the plate was incubated at 37° C. for 30 min. In a blank group, 100 100 μL of the coating buffer was added instead of the IL-17A solution.
The plate was washed four times with 10 mM phosphate-buffered saline containing 0.05% Tween-20 (PBST, pH 7.4). 200 μL of PBST was used per well for each wash. After the final wash, the plate was tapped dry on absorbent paper.
Fresh 5% (w/v) skim milk solution was prepared before the experiment. For example, 5 g of skim milk powder (Bio-Rad, 170-6404) was completely dissolved in 100 mL of 10 mM PBST. 200 μL of the 5% (w/v) skim milk solution was added to each well, and the plate was incubated on a shaker at 25° C. for 30 min.
(S4) Preparation of 100× to-be-Tested Compound Solutions
During step (S3), the to-be-tested compound solutions were prepared, respectively. Each powdered compound was dissolved in dimethyl sulfoxide (DMSO) to reach a storage concentration of 10 mM. The to-be-tested compound solutions were then serially diluted four-fold with DMSO to obtain nine storage concentrations ranging from […].
(S6) Pre-incubation of IL-17A with to-be-tested compound solutions
89 μL of PBST and 1 μL of each of the to-be-tested compound solutions were added to each well and mixed. The plate was pre-incubated at 25° C. for 10 min. In the blank group and the control group, 1 μL of DMSO was added instead of the to-be-tested compound solutions.
(S7) Incubation with Human Interleukin-17 Receptor a (IL-17Ra)
10 μL of 16 nM human IL-17Ra (Sino Biological Inc., Cat #10895-H03H) was added, followed by incubation on a shaker at 25° C. for 30 min. The receptor solution was prepared in 10 mM PBST.
(S9) Incubation with Horseradish Peroxidase-Conjugated Antibody
100 μL of mouse anti-Fc tag horseradish peroxidase (HRP)-conjugated antibody (Sino Biological Inc., Cat #10702-MM01T-H) was added to each well. The plate was incubated on a shaker at 25° C. for 30 min. The antibody was diluted with 5% (w/v) skim milk solution at 1:5,000 (v/v).
100 μL of 3,3′,5,5′-tetramethylbenzidine (TMB) substrate solution (BD, Cat #555214) was added to each well. Substrate A and substrate B were freshly mixed at a volume ratio of 1:1 before use. The plate was incubated in the dark at 25° C. for 5-15 min.
(S12) Termination and Detection
The color reaction was terminated by addition of 2.5 M hydrochloric acid (HCl). Absorbance was measured at 450 nm using a BMG PHERStar microplate reader.
(S13) Calculation of Half-Maximal Inhibitory Concentration (IC50)
The relative percent residual activity at each compound concentration was calculated according to Equation 1. The IC50 value of each test compound was then calculated in GraphPad 6 using the equation for log(inhibitor) versus normalized response with variable slope, as shown in Equation 2.
relative percent residual activity (%)=[(absorbance of sample−absorbance of blank group)/(absorbance of control group−absorbance of blank group)]%. Equation 1: […]
The compounds prepared in the above examples were tested for IL-17A inhibitory activity according to the above method.

| Structure (SMILES) | IC50 |
| --- | --- |
| Cc1[nH]nc2c1-c1cnc(NC(=O)[C@@H](NC(=O)c3ccnn3CCCF)C(C3CC3)C3CC3)cc1CN(C(C)C(F)(F)F)C(=O)C2 (mixture of isomers) [compound 226] | ≤ 50 nM |
| Cc1[nH]nc2c1-c1cc(F)c(NC(=O)[C@@H](NC(=O)c3ccnn3CCCF)C(C3CC3)C3CC3)cc1CN(C(C)C(F)(F)F)C(=O)C2 (mixture of isomers) [compound 249] | ≤ 50 nM |
| CC(C)=C(F)C(=O)N[C@H](C(=O)Nc1cc2c(cc1F)-c1c(n[nH]c1C)CC(=O)N(C(C)C(F)(F)F)C2)C(C1CC1)C1CC1 (mixture of isomers) [compound 252] | ≤ 50 nM |
| Cc1[nH]nc2c1-c1cnc(NC(=O)[C@@H](NC(=O)/C(F)=C\C(C)C)C(C3CC3)C3CC3)cc1CN(C(C)C(F)(F)F)C(=O)C2 (mixture of isomers) [compound 254] | ≤ 50 nM |
| C=C(F)C(=O)N[C@H](C(=O)Nc1cc2c(cn1)-c1c(n[nH]c1C)CC(=O)N(C(C)C(F)(F)F)C2)C(C1CC1)C1CC1 (mixture of isomers) [compound 257] | ≤ 50 nM |
| Cc1[nH]nc2c1-c1cc(F)c(NC(=O)C(NC(=O)c3ccnn3C(C)C)C3CCC(F)(F)CC3)cc1COCC2 (single isomer, unassigned) [compound 38a] | ≤ 50 nM |
| Cc1[nH]nc2c1-c1cc(F)c(NC(=O)[C@@H](NC(=O)c3ccnn3C(C)C[S+](C)[O-])C(C3CC3)C3CC3)cc1COCC2 (single isomer, unassigned) [compound 43a] | 50 to 150 nM |
| Cc1[nH]nc2c1-c1cc(F)c(NC(=O)[C@@H](NC(=O)c3ccnn3C(C)C[S+](C)[O-])C(C3CC3)C3CC3)cc1COCC2 (single isomer, unassigned) [compound 43b] | 50 to 150 nM |
| Cc1nonc1C(=O)N[C@H](C(=O)Nc1ccc2c(c1)COCCc1n[nH]c(C)c1-2)C(C1CC1)C1CC1 [compound 4] | ≤ 50 nM |
| CCn1nccc1C(=O)N[C@H](C(=O)Nc1ccc2c(c1)CCOCc1n[nH]c(C)c1-2)C(C1CC1)C1CC1 [compound 14] | 50 to 150 nM |
| [2H]C([2H])([2H])n1nccc1C(=O)N[C@H](C(=O)Nc1cc2c(cc1F)-c1c(n[nH]c1C)CCOC2)C(C1CC1)C1CC1 [compound 18] | 50 to 150 nM |
| Cc1nonc1C(=O)N[C@H](C(=O)Nc1cc2c(cc1F)-c1c(n[nH]c1C)CCOC2)C(C1CC1)C1CC1 [compound 20] | ≤ 50 nM |
| CCn1nccc1C(=O)N[C@H](C(=O)Nc1cc2c(cc1Cl)-c1c[nH]nc1CCOC2)C(C1CC1)C1CC1 [compound 30] | 50 to 150 nM |
| Cc1[nH]nc2c1-c1cc(F)c(NC(=O)[C@@H](NC(=O)c3ccnn3[C@@H](C)CO)[C@H]3CC[C@H](C)CC3)cc1COCC2 [compound 47] | ≤ 50 nM |
| Cc1[nH]nc2c1-c1ccc(NC(=O)[C@@H](NC(=O)c3ccnn3[C@@H](C)CO)C(C3CC3)C3CC3)cc1COCC2 [compound 51] | ≤ 50 nM |
| Cc1[nH]nc2c1-c1cc(F)c(NC(=O)[C@@H](NC(=O)c3ccnn3CCCO)C(C3CC3)C3CC3)cc1COCC2 [compound 56] | ≤ 50 nM |
| Cc1[nH]nc2c1-c1cc(F)c(NC(=O)[C@@H](NC(=O)c3ccnn3CCS(C)(=O)=O)C(C3CC3)C3CC3)cc1COCC2 [compound 63] | ≤ 50 nM |
| Cc1[nH]nc2c1-c1cc(F)c(NC(=O)[C@@H](NC(=O)c3ccnn3C3CCOCC3)C(C3CC3)C3CC3)cc1COCC2 [compound 74] | 50 to 150 nM |
| Cc1[nH]nc2c1-c1cc(F)c(NC(=O)[C@@H](NC(=O)c3ccnn3CC(C)(C)C#N)C(C3CC3)C3CC3)cc1COCC2 [compound 77] | 50 to 150 nM |
| CO[C@@H](C)Cn1nccc1C(=O)N[C@H](C(=O)Nc1cc2c(cc1F)-c1c(n[nH]c1C)CCOC2)C(C1CC1)C1CC1 [compound 78] | ≤ 50 nM |
| Cc1[nH]nc2c1-c1cc(F)c(NC(=O)[C@@H](NC(=O)c3ccnn3CCCN3CCN(C)CC3)C(C3CC3)C3CC3)cc1COCC2 [compound 93] | 50 to 150 nM |

Next, values leading:

| IC50 | Structure (SMILES) |
| --- | --- |
| ≤ 50 nM | Cc1[nH]nc2c1-c1cnc(NC(=O)[C@@H](NC(=O)c3ccnn3C(C)C)C(C3CC3)C3CC3)cc1CN(C(C)C(F)(F)F)C(=O)C2 (mixture of isomers) [compound 204] |
| ≤ 50 nM | Cc1[nH]nc2c1-c1cnc(NC(=O)[C@@H](NC(=O)c3ccnn3C(C)C)C(C3CC3)C3CC3)cc1CN(C(C)C(F)(F)F)CC2 (mixture of isomers) [compound 205] |
| ≤ 50 nM | Cc1[nH]nc2c1-c1cnc(NC(=O)C(NC(=O)c3conc3C(C)C)C(C3CC3)C3CC3)cc1CN(C(C)C(F)(F)F)C(=O)C2 (racemic) [compound 225] |
| ≤ 50 nM | Cc1[nH]nc2c1-c1cc(F)c(NC(=O)[C@@H](NC(=O)c3conc3C(C)C)C(C3CC3)C3CC3)cc1CN(C(C)C(F)(F)F)C(=O)C2 (mixture of isomers) [compound 248] |
| ≤ 50 nM | Cc1[nH]nc2c1-c1cc(F)c(NC(=O)[C@@H](NC(=O)/C(F)=C\C(C)C)C(C3CC3)C3CC3)cc1CN(C(C)C(F)(F)F)C(=O)C2 (mixture of isomers) [compound 250] |
| ≤ 50 nM | Cc1[nH]nc2c1-c1cc(F)c(NC(=O)[C@@H](NC(=O)/C(F)=C\C3CC3)C(C3CC3)C3CC3)cc1CN(C(C)C(F)(F)F)C(=O)C2 (mixture of isomers) [compound 251] |
| ≤ 50 nM | C=C(F)C(=O)N[C@H](C(=O)Nc1cc2c(cc1F)-c1c(n[nH]c1C)CC(=O)N(C(C)C(F)(F)F)C2)C(C1CC1)C1CC1 (mixture of isomers) [compound 253] |
| ≤ 50 nM | Cc1[nH]nc2c1-c1cnc(NC(=O)[C@@H](NC(=O)/C(F)=C\C3CC3)C(C3CC3)C3CC3)cc1CN(C(C)C(F)(F)F)C(=O)C2 (mixture of isomers) [compound 255] |
| ≤ 50 nM | CC(C)=C(F)C(=O)N[C@H](C(=O)Nc1cc2c(cn1)-c1c(n[nH]c1C)CC(=O)N(C(C)C(F)(F)F)C2)C(C1CC1)C1CC1 (mixture of isomers) [compound 256] |
| ≤ 50 nM | CCn1nccc1C(=O)NC(C(=O)Nc1cc2c(cc1F)-c1c(n[nH]c1C)CCOC2)C1CCC(F)(F)CC1 (single isomer, unassigned) [compound 37a] |
| ≤ 50 nM | CCc1nonc1C(=O)N[C@H](C(=O)Nc1ccc2c(c1)COCCc1n[nH]c(C)c1-2)C(C1CC1)C1CC1 [compound 5] |
| ≤ 50 nM | CCc1nonc1C(=O)N[C@H](C(=O)Nc1cc2c(cc1F)-c1c(n[nH]c1C)CCOC2)C(C1CC1)C1CC1 [compound 21] |
| 150 to 1000 nM | Cn1nccc1C(=O)N[C@H](C(=O)Nc1cc2c(cc1Cl)-c1c[nH]nc1CCOC2)C(C1CC1)C1CC1 [compound 31] |
| 50 to 150 nM | Cc1[nH]nc2c1-c1cc(F)c(NC(=O)[C@@H](NC(=O)c3ccnn3[C@@H](C)CO)C3CCCCC3)cc1COCC2 [compound 50] |
| ≤ 50 nM | Cc1[nH]nc2c1-c1cc(F)c(NC(=O)[C@@H](NC(=O)c3ccnn3[C@@H](C)CO)C(C3CC3)C3CC3)cc1COCC2 [compound 55] |
| ≤ 50 nM | Cc1[nH]nc2c1-c1cc(F)c(NC(=O)[C@@H](NC(=O)c3ccnn3C3CCC3)C(C3CC3)C3CC3)cc1COCC2 [compound 72] |
| 50 to 150 nM | Cc1[nH]nc2c1-c1cc(F)c(NC(=O)[C@@H](NC(=O)c3ccnn3[C@H]3CCOC3)C(C3CC3)C3CC3)cc1COCC2 [compound 73] |
| 50 to 150 nM | Cc1[nH]nc2c1-c1cc(F)c(NC(=O)[C@@H](NC(=O)c3ccnn3C(F)F)C(C3CC3)C3CC3)cc1COCC2 [compound 83] |
| 50 to 150 nM | Cc1[nH]nc2c1-c1cc(F)c(NC(=O)[C@@H](NC(=O)c3ccnn3CCCN(C)C)C(C3CC3)C3CC3)cc1COCC2 [compound 85] |
| 50 to 150 nM | Cc1[nH]nc2c1-c1cc(F)c(NC(=O)[C@@H](NC(=O)c3ccnn3CC3(C(F)(F)F)CC3)C(C3CC3)C3CC3)cc1COCC2 [compound 91] |
